Measured values reported in ChEMBL document CHEMBL4308841, “Synthesis, in vitro antiproliferative activity, and kinase inhibitory effects of pyrazole-containing diarylureas and diarylamides” (Eur J Med Chem, 2018).

Tests used:
K562 = assay: Growth inhibition of human K562 cells incubated for 48 hrs by sulforhodamine B assay; type: functional, cell-based; conditions: K562, 48 h
NCI-H522 = assay: Growth inhibition of human NCI-H522 cells incubated for 48 hrs by sulforhodamine B assay; type: functional, cell-based; conditions: NCI-H522, 48 h
COLO 205 = assay: Growth inhibition of human COLO205 cells incubated for 48 hrs by sulforhodamine B assay; type: functional, cell-based; conditions: COLO 205, 48 h
SN12C = assay: Growth inhibition of human SN12C cells incubated for 48 hrs by sulforhodamine B assay; type: functional, cell-based
A549 = assay: Growth inhibition of human A549/ATCC cells assessed as cell growth at 0.01 uM incubated for 48 hrs by sulforhodamine B assay relative to control; type: functional; conditions: A549, 48 h, read-out: Activity
NCI-H23 = assay: Growth inhibition of human NCI-H23 cells assessed as cell growth at 0.01 uM incubated for 48 hrs by sulforhodamine B assay relative to control; type: functional; conditions: NCI-H23, 48 h, read-out: Activity
SNB-19 = assay: Growth inhibition of human SNB19 cells assessed as cell growth at 0.01 uM incubated for 48 hrs by sulforhodamine B assay relative to control; type: functional; conditions: SNB-19, 48 h, read-out: Activity
MDA-MB-435 [1] = assay: Growth inhibition of human MDA-MB-435 cells assessed as cell growth at 0.01 uM incubated for 48 hrs by sulforhodamine B assay relative to control; type: functional; conditions: MDA-MB-435, 48 h, read-out: Activity
SK-MEL-2 = assay: Growth inhibition of human SK-MEL-2 cells assessed as cell growth at 0.01 uM incubated for 48 hrs by sulforhodamine B assay relative to control; type: functional; conditions: SK-MEL-2, 48 h, read-out: Activity
OVCAR-8 = assay: Growth inhibition of human OVCAR8 cells assessed as cell growth at 0.01 uM incubated for 48 hrs by sulforhodamine B assay relative to control; type: functional; conditions: OVCAR-8, 48 h, read-out: Activity
SK-OV-3 = assay: Growth inhibition of human SKOV3 cells assessed as cell growth at 0.01 uM incubated for 48 hrs by sulforhodamine B assay relative to control; type: functional; conditions: SK-OV-3, 48 h, read-out: Activity
A498 = assay: Growth inhibition of human A498 cells assessed as cell growth at 0.01 uM incubated for 48 hrs by sulforhodamine B assay relative to control; type: functional; conditions: A498, 48 h, read-out: Activity
BT-549 [2] = assay: Growth inhibition of human BT549 cells assessed as cell growth at 0.01 uM incubated for 48 hrs by sulforhodamine B assay relative to control; type: functional; conditions: BT-549, 48 h, read-out: Activity
SR = assay: Growth inhibition of human SR cells assessed as cell growth at 0.1 uM incubated for 48 hrs by sulforhodamine B assay relative to control; type: functional; conditions: read-out: Activity
KM12 = assay: Growth inhibition of human KM12 cells assessed as cell growth at 0.1 uM incubated for 48 hrs by sulforhodamine B assay relative to control; type: functional; conditions: KM12, 48 h, read-out: Activity
NCI/ADR-RES = assay: Growth inhibition of human NCI/ADR-RES cells assessed as cell growth at 0.1 uM incubated for 48 hrs by sulforhodamine B assay relative to control; type: functional; conditions: read-out: Activity
DU-145 = assay: Growth inhibition of human DU145 cells assessed as cell growth at 0.1 uM incubated for 48 hrs by sulforhodamine B assay relative to control; type: functional; conditions: DU-145, 48 h, read-out: Activity
MDA-MB-231 = assay: Growth inhibition of human MDA-MB-231 cells assessed as cell growth at 0.1 uM incubated for 48 hrs by sulforhodamine B assay relative to control; type: functional; conditions: MDA-MB-231, 48 h, read-out: Activity
Hs-578T = assay: Growth inhibition of human Hs578T cells assessed as cell growth at 0.1 uM incubated for 48 hrs by sulforhodamine B assay relative to control; type: functional; conditions: read-out: Activity
MDA-MB-468 = assay: Growth inhibition of human MDA-MB-468 cells assessed as cell growth at 0.1 uM incubated for 48 hrs by sulforhodamine B assay relative to control; type: functional; conditions: MDA-MB-468, 48 h, read-out: Activity
NCI-H226 = assay: Growth inhibition of human NCI-H226 cells assessed as cell growth at 1 uM incubated for 48 hrs by sulforhodamine B assay relative to control; type: functional; conditions: NCI-H226, 48 h, read-out: Activity
SF-539 = assay: Growth inhibition of human SF539 cells assessed as cell growth at 1 uM incubated for 48 hrs by sulforhodamine B assay relative to control; type: functional; conditions: SF-539, 48 h, read-out: Activity
LOX IMVI = assay: Growth inhibition of human LOXIMVI cells assessed as cell growth at 1 uM incubated for 48 hrs by sulforhodamine B assay relative to control; type: functional; conditions: read-out: Activity
SK-MEL-5 = assay: Growth inhibition of human SK-MEL-5 cells assessed as cell growth at 1 uM incubated for 48 hrs by sulforhodamine B assay relative to control; type: functional; conditions: SK-MEL-5, 48 h, read-out: Activity
BT-549 [3] = assay: Growth inhibition of human BT549 cells assessed as cell growth at 1 uM incubated for 48 hrs by sulforhodamine B assay relative to control; type: functional; conditions: BT-549, 48 h, read-out: Activity
HT-29 = assay: Growth inhibition of human HT-29 cells assessed as cell growth at 100 uM incubated for 48 hrs by sulforhodamine B assay relative to control; type: functional; conditions: HT-29, 48 h, read-out: Activity
SW-620 = assay: Growth inhibition of human SW620 cells assessed as cell growth at 100 uM incubated for 48 hrs by sulforhodamine B assay relative to control; type: functional; conditions: SW-620, 48 h, read-out: Activity
SF-268 = assay: Growth inhibition of human SF268 cells assessed as cell growth at 100 uM incubated for 48 hrs by sulforhodamine B assay relative to control; type: functional; conditions: SF-268, 48 h, read-out: Activity
MDA-MB-435 [4] = assay: Growth inhibition of human MDA-MB-435 cells assessed as cell growth at 100 uM incubated for 48 hrs by sulforhodamine B assay relative to control; type: functional; conditions: MDA-MB-435, 48 h, read-out: Activity
IGROV-1 = assay: Growth inhibition of human IGROV1 cells assessed as cell growth at 100 uM incubated for 48 hrs by sulforhodamine B assay relative to control; type: functional; conditions: IGROV-1, 48 h, read-out: Activity
[5] = read-out: LC50 (the source's name)
[6] = read-out: pLC50 (the source's name) (converted)

Structure (SMILES): O=C(Nc1cccc(-n2cc(-c3ccncc3)c(-c3cc(O)cc(Cl)c3)n2)c1)c1ccc(N2CCOCC2)c(C(F)(F)F)c1
- GI50 (K562; read-out: GI50): 0.554 µM
- LC50 (K562; read-out: LC50): > 100 µM
- TGI (K562; read-out: TGI): 40.8 µM
- GI50 (K562; read-out: pGI50 (converted)): 0.562 µM
- LC50 (K562; read-out: pLC50 (converted)): > 100 µM
- TGI (K562; read-out: pTGI (converted)): 4.9 µM
- GI50 (NCI-H522; read-out: GI50): 0.934 µM
- CC50 (NCI-H522; [5]): > 100 µM
- TGI (NCI-H522; read-out: TGI): 12.1 µM
- GI50 (NCI-H522; read-out: pGI50 (converted)): 0.933 µM
- CC50 (NCI-H522; [6]): > 100 µM
- TGI (NCI-H522; read-out: pTGI (converted)): 12 µM
- GI50 (COLO 205; read-out: GI50): 1.75 µM
- CC50 (COLO 205; [5]): > 100 µM
- TGI (COLO 205; read-out: TGI): 64.5 µM
- GI50 (COLO 205; read-out: pGI50 (converted)): 17.4 µM
- CC50 (COLO 205; [6]): > 100 µM
- TGI (COLO 205; read-out: pTGI (converted)): 64.6 µM
- GI50 (SN12C; read-out: GI50): 6.37 µM
- LC50 (SN12C; read-out: LC50): > 100 µM
- TGI (SN12C; read-out: TGI): > 100 µM
- GI50 (SN12C; read-out: pGI50 (converted)): 6.31 µM
- LC50 (SN12C; read-out: pLC50 (converted)): > 100 µM
- TGI (SN12C; read-out: pTGI (converted)): > 100 µM
- growth at 0.01 µM (A549): 103%
- growth at 0.01 µM (NCI-H23): 105%
- growth at 0.01 µM (SNB-19): 101%
- growth at 0.01 µM (MDA-MB-435 [1]): 96%
- growth at 0.01 µM (SK-MEL-2): 54%
- growth at 0.01 µM (OVCAR-8): 101%
- growth at 0.01 µM (SK-OV-3): 102%
- growth at 0.01 µM (A498): 97%
- growth at 0.01 µM (BT-549 [2]): 100%
- growth at 0.1 µM (SR): 98%
- growth at 0.1 µM (KM12): 105%
- growth at 0.1 µM (NCI/ADR-RES): 103%
- growth at 0.1 µM (DU-145): 108%
- growth at 0.1 µM (MDA-MB-231): 92%
- growth at 0.1 µM (Hs-578T): 90%
- growth at 0.1 µM (MDA-MB-468): 54%
- growth at 1 µM (NCI-H226): 90%
- growth at 1 µM (SF-539): 58%
- growth at 1 µM (LOX IMVI): 51%
- growth at 1 µM (SK-MEL-5): 52%
- growth at 1 µM (BT-549 [3]): 75%
- growth at 100 µM (HT-29): -41%
- growth at 100 µM (SW-620): -19%
- growth at 100 µM (SF-268): 38%
- growth at 100 µM (MDA-MB-435 [4]): 8%
- growth at 100 µM (IGROV-1): 25%

Structure (SMILES): O=C(Nc1cccc(-n2cc(-c3ccncc3)c(-c3cc(O)cc(Cl)c3)n2)c1)Nc1ccc(Cl)c(C(F)(F)F)c1
- GI50 (K562; read-out: GI50): 2.59 µM
- LC50 (K562; read-out: LC50): > 100 µM
- TGI (K562; read-out: TGI): 11 µM
- GI50 (K562; read-out: pGI50 (converted)): 2.57 µM
- LC50 (K562; read-out: pLC50 (converted)): > 100 µM
- TGI (K562; read-out: pTGI (converted)): 12 µM
- GI50 (NCI-H522; read-out: GI50): 1.32 µM
- CC50 (NCI-H522; [5]): 19 µM
- TGI (NCI-H522; read-out: TGI): 44.8 µM
- GI50 (NCI-H522; read-out: pGI50 (converted)): 1.32 µM
- CC50 (NCI-H522; [6]): 19.1 µM
- TGI (NCI-H522; read-out: pTGI (converted)): 4.47 µM
- GI50 (COLO 205; read-out: GI50): 2.25 µM
- CC50 (COLO 205; [5]): 15.9 µM
- TGI (COLO 205; read-out: TGI): 51.7 µM
- GI50 (COLO 205; read-out: pGI50 (converted)): 2.82 µM
- CC50 (COLO 205; [6]): 19.1 µM
- TGI (COLO 205; read-out: pTGI (converted)): 5.13 µM
- GI50 (SN12C; read-out: GI50): 3.44 µM
- LC50 (SN12C; read-out: LC50): > 100 µM
- TGI (SN12C; read-out: TGI): 17.2 µM
- GI50 (SN12C; read-out: pGI50 (converted)): 3.55 µM
- LC50 (SN12C; read-out: pLC50 (converted)): > 100 µM
- TGI (SN12C; read-out: pTGI (converted)): 17 µM
- growth at 0.01 µM (A549): 101%
- growth at 0.01 µM (NCI-H23): 92%
- growth at 0.01 µM (SNB-19): 95%
- growth at 0.01 µM (MDA-MB-435 [1]): 97%
- growth at 0.01 µM (SK-MEL-2): 99%
- growth at 0.01 µM (OVCAR-8): 102%
- growth at 0.01 µM (SK-OV-3): 108%
- growth at 0.01 µM (A498): 58%
- growth at 0.01 µM (BT-549 [2]): 102%
- growth at 0.1 µM (SR): 98%
- growth at 0.1 µM (KM12): 92%
- growth at 0.1 µM (NCI/ADR-RES): 92%
- growth at 0.1 µM (DU-145): 99%
- growth at 0.1 µM (MDA-MB-231): 105%
- growth at 0.1 µM (Hs-578T): 94%
- growth at 0.1 µM (MDA-MB-468): 94%
- growth at 1 µM (NCI-H226): 96%
- growth at 1 µM (SF-539): 91%
- growth at 1 µM (LOX IMVI): 93%
- growth at 1 µM (SK-MEL-5): 90%
- growth at 1 µM (BT-549 [3]): 90%
- growth at 100 µM (HT-29): -88%
- growth at 100 µM (SW-620): -58%
- growth at 100 µM (SF-268): -27%
- growth at 100 µM (MDA-MB-435 [4]): -93%
- growth at 100 µM (IGROV-1): -41%
